US5202354A, “Composition and method for reducing acetaldehyde toxicity” (priority 1986, dated 1993)
Entries after “also recorded” stand apart in the source; their conditions may differ. Structures can show the parent of a compound that is named as a salt.

Assay: Antagonistic effects on the anesthetic and lethal effects of acetaldehyde in rats
Format: in vivo
Details: acetaldehyde 1370 mg/kg oral, hydrochloride
Protocol: Rats (body weights 250-280 g) fasted for 18 hours were previously dosed orally with each of test compositions Formula A to Formula G as shown in below. Control group received a corresponding volume of saline by the same route. After a predetermined time (45-60 min ), acetaldehyde (1370 mg/kg) was orally administered to the rats and the effect of Formula A to Formula G on the anesthetic and lethal effects of acetaldehyde was observed.
When 1370 mg/kg of acetaldehyde was administered without prior treatment with the test compositions, the rats (control group) fell into anesthesia within several minutes, and then developed dyspnea and the like and 90% of them died within 1 to 6 hours.
The same experiment as Experimental Example I was carried out with each of test compositions Formula H and I and the results obtained are shown in Table 4.

CC(=C(CCO)SSCC1CCCO1)N(C=O)Cc1cnc(C)nc1N (stereo in doubt) [fursultiamine hydrochloride]
antagonizing effect against anesthetic and lethal effects of acetaldehyde (in words): fully effective at the level of addition of 20 mg/kg; also recorded: more effective than thiamine hydrochloride
